Source: patent US12371428B2 (Exelixis, Inc., priority 2019, dated 2025)
Structures can show the parent of a compound that is named as a salt.

What was measured:
[1] = target: Human MER (residues 528-999) (Homo sapiens (Human), UniProt Q12866); assay: Human Mer kinase assay, HTRF KinEase (Example C-2); format: biochemical; details: protocol of Example C-2 (other compounds)
How it was run: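 Recombinant MER 528-999 (1 ng/well) in buffer with 5 mM MgCl2 and 1 mM DTT was reacted with biotinylated peptide and ATP at Km (40 μM) for 60 min at room temperature. EDTA stop with SA-XL665 and Eu3+ TK antibody, then 665/620 nm HTRF read; IC50 from 4-parameter fit.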

[2] = target: KDR (phospho-KDR, VEGF165-stimulated HUVEC cells) (Homo sapiens (Human), UniProt P35968); assay: KDR autophosphorylation ELISA in HUVEC cells (Example G); format: cell-based; details: cellular activity; KDR autophosphorylation ELISA in HUVEC cells
Sequence of KDR (phospho-KDR, VEGF165-stimulated HUVEC cells) (P35968 20-1356): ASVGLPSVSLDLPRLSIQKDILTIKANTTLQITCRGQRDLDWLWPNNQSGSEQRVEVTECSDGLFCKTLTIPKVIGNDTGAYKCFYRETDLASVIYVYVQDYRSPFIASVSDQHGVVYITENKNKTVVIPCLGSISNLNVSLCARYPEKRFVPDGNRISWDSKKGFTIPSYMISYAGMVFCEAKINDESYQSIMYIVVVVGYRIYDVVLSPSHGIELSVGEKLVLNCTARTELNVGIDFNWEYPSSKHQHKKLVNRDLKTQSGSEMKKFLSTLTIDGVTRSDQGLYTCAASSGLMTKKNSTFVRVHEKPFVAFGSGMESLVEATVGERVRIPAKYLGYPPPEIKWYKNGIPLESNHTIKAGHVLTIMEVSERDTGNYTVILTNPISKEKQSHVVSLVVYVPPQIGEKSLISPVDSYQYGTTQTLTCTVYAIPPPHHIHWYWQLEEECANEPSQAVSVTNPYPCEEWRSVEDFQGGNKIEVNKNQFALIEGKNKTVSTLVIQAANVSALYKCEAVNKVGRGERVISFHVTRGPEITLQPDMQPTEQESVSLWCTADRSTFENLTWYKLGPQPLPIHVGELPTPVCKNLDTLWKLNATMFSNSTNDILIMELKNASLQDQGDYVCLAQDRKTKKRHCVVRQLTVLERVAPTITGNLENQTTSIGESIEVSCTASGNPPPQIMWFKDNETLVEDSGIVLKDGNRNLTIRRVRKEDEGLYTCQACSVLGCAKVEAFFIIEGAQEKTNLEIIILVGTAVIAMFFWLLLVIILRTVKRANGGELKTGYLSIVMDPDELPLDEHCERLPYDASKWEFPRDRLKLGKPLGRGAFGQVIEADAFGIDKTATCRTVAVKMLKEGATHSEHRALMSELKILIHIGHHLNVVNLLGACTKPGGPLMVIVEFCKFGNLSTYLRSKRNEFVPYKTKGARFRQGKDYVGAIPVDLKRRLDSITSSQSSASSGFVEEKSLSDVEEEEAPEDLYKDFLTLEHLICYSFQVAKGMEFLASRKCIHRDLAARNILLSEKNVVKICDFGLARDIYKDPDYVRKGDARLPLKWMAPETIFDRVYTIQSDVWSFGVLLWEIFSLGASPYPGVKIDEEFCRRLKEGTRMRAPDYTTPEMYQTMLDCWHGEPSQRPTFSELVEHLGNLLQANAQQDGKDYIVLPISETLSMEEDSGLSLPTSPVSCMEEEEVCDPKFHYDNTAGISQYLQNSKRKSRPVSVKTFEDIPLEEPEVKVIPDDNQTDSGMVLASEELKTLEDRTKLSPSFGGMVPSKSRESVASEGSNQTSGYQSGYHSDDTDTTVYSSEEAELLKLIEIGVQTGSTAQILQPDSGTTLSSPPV
How it was run: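 HUVECs were serum-starved 24 h, given compound as an 8-point dilution series (0.3% DMSO final) for 1 h, then stimulated with 100 ng/mL VEGF165 for 5 min. Lysate phospho-KDR was quantified by sandwich ELISA against a phospho-KDR standard, and IC50s came from a 4-parameter logistic fit.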

[3] = target: Human MET (residues 956-1390) (Homo sapiens (Human), UniProt P08581); assay: Human Met kinase assay, HTRF KinEase (Example D-2); format: biochemical; details: protocol of Example D-2 (other compounds); read-out: c-Met IC50
Sequence of Human MET (residues 956-1390) (P08581 956-1390): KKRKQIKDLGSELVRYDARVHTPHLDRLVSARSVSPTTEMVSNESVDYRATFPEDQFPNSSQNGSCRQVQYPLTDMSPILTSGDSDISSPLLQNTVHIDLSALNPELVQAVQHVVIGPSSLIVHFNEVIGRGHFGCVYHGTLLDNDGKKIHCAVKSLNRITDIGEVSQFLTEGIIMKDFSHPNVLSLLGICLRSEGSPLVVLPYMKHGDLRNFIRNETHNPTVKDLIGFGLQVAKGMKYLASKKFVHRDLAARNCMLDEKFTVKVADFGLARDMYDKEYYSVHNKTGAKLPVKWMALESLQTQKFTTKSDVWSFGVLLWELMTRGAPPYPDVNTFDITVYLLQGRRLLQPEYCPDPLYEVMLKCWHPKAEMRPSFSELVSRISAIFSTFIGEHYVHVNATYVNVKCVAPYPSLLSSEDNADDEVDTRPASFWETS
How it was run: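 MET kinase domain (956-1390), 0.1 ng/well, in buffer with 5 mM MgCl2, 1 mM DTT and 1 mM MnCl2, phosphorylated a biotinylated peptide at ATP Km for 40 min at RT; 10 concentrations, 3% DMSO final. EDTA-stopped HTRF read after 60 min; IC50 from a 4-parameter logistic fit.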

Sequence of Human MER (residues 528-999) (Q12866 528-999): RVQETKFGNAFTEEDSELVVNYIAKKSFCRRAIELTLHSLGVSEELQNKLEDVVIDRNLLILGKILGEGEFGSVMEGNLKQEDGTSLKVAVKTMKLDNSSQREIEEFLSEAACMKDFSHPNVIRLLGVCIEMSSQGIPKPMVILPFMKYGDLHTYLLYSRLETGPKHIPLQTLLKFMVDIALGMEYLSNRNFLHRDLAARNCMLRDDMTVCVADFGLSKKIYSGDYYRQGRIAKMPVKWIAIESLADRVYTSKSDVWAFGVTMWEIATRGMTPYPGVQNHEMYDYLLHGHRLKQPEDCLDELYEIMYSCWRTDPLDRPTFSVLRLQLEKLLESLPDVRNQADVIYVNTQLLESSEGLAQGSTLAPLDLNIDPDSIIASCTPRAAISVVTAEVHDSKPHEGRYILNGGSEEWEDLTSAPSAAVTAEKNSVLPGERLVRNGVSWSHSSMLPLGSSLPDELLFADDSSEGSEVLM

| SMILES | IC50 [1] [µM] | IC50 [2] [µM] | IC50 [3] [µM] |
| --- | --- | --- | --- |
| COc1ccc2nccc(Oc3ccc(NC(=O)c4cnc(CO)c(-c5ccc(F)cc5)c4O)cc3F)c2n1 [Compound 231, N-[3-Fluoro-4-[(6-methoxy-1,5-naphthyridin-4-yl)oxy]phenyl]-5-(4-fluorophenyl)-4-hydroxy-6-(hydroxymethyl)pyridine-3-carboxamide] | < 0.1 | < 0.1 | < 0.1 |
| COc1cnc2c(Oc3ccc(NC(=O)c4n[nH]c(C)c(-c5ccc(F)cc5C)c4=O)cc3F)ccnc2c1 [Compound 249A, N-[3-Fluoro-4-[(7-methoxy-1,5-naphthyridin-4-yl)oxy]phenyl]-5-(4-fluoro-2-methylphenyl)-6-methyl-4-oxo-1H-pyridazine-3-carboxamide] | < 0.1 | 0.1 to 0.3 | < 0.1 |
| COc1cc2nccc(Oc3ccc(NC(=O)c4c(C)nc(C)c(-c5ccc(F)cc5C)c4O)cc3F)c2nc1OC [Compound 177, N-[4-[(6,7-Dimethoxy-1,5-naphthyridin-4-yl)oxy]-3-fluorophenyl]-5-(4-fluoro-2-methylphenyl)-4-hydroxy-2,6-dimethylpyridine-3-carboxamide] | < 0.1 | < 0.1 | < 0.1 |
| COc1cnc2c(Oc3ccc(NC(=O)c4cn(C)c(CO)c(-c5ccc(F)cc5)c4=O)cc3F)ccnc2c1 [Compound 222, N-[3-Fluoro-4-[(7-methoxy-1,5-naphthyridin-4-yl)oxy]phenyl]-5-(4-fluorophenyl)-6-(hydroxymethyl)-1-methyl-4-oxopyridine-3-carboxamide] | < 0.1 | > 0.3 | < 0.1 |
| COc1ccc2nccc(Oc3ccc(NC(=O)c4c(C)nc(C)n(-c5ccc(F)cc5)c4=O)cc3F)c2n1 [Compound 233, N-[3-Fluoro-4-[(6-methoxy-1,5-naphthyridin-4-yl)oxy]phenyl]-1-(4-fluorophenyl)-2,4-dimethyl-6-oxopyrimidine-5-carboxamide] | < 0.1 | < 0.1 | 0.1 to 0.3 |
| COCc1nc(C)c(-c2ccc(F)cc2)c(O)c1C(=O)Nc1ccc(Oc2ccnc3cc(OC)cnc23)c(F)c1 [Compound 186, N-[3-Fluoro-4-[(7-methoxy-1,5-naphthyridin-4-yl)oxy]phenyl]-5-(4-fluorophenyl)-4-hydroxy-2-(methoxymethyl)-6-methylpyridine-3-carboxamide] | < 0.1 | < 0.1 | < 0.1 |
| COc1cc2nccc(Oc3ccc(NC(=O)c4n[nH]c(C)c(-c5ccc(F)cc5C)c4=O)cc3)c2nc1OC [Compound 247, N-[4-[(6,7-Dimethoxy-1,5-naphthyridin-4-yl)oxy]phenyl]-5-(4-fluoro-2-methylphenyl)-6-methyl-4-oxo-1H-pyridazine-3-carboxamide] | < 0.1 | < 0.1 | < 0.1 |
| COCCOc1nc2c(Oc3ccc(NC(=O)c4c(COC)nc(C)c(-c5ccc(F)cc5)c4O)cc3F)ccnc2cc1OC [Compound 199, N-[3-Fluoro-4-[[7-methoxy-6-(2-methoxyethoxy)-1,5-naphthyridin-4-yl]oxy]phenyl]-5-(4-fluorophenyl)-4-hydroxy-2-(methoxymethyl)-6-methylpyridine-3-carboxamide] | < 0.1 | < 0.1 | < 0.1 |
| COc1cc2nccc(Oc3ccc(NC(=O)c4cn(C)cc(-c5ccccc5)c4=O)cc3F)c2nc1OC [Compound 33, N-[4-[(6,7-Dimethoxy-1,5-naphthyridin-4-yl)oxy]-3-fluorophenyl]-1-methyl-4-oxo-5-phenylpyridine-3-carboxamide hydrochloride] | < 0.1 | < 0.1 | < 0.1 |
| COc1cc2nccc(Oc3ccc(NC(=O)c4cn(C)c(C)c(-c5ccc(F)cc5C)c4=O)cc3)c2nc1OC [Compound 196, N-[4-[(6,7-Dimethoxy-1,5-naphthyridin-4-yl)oxy]phenyl]-5-(4-fluoro-2-methylphenyl)-1,6-dimethyl-4-oxopyridine-3-carboxamide] | < 0.1 | < 0.1 | < 0.1 |
| COCc1nc(C)c(-c2ccc(F)cc2C)c(O)c1C(=O)Nc1ccc(Oc2ccnc3cc(OC)cnc23)c(F)c1 [Compound 193, N-[3-Fluoro-4-[(7-methoxy-1,5-naphthyridin-4-yl)oxy]phenyl]-5-(4-fluoro-2-methylphenyl)-4-hydroxy-2-(methoxymethyl)-6-methylpyridine-3-carboxamide] | < 0.1 | < 0.1 | < 0.1 |
| COc1cc2nccc(Oc3ccc(NC(=O)c4ccc(C)n(-c5ccc(F)cc5C)c4=O)cc3F)c2nc1OC [Compound 219, N-[4-[(6,7-Dimethoxy-1,5-naphthyridin-4-yl)oxy]-3-fluorophenyl]-1-(4-fluoro-2-methylphenyl)-6-methyl-2-oxopyridine-3-carboxamide] | < 0.1 | < 0.1 | < 0.1 |
| CCc1nc(C)c(-c2ccc(F)cc2C)c(O)c1C(=O)Nc1ccc(Oc2ccnc3cc(OC)cnc23)c(F)c1 [Compound 204, 2-Ethyl-N-[3-fluoro-4-[(7-methoxy-1,5-naphthyridin-4-yl)oxy]phenyl]-5-(4-fluoro-2-methylphenyl)-4-hydroxy-6-methylpyridine-3-carboxamide] | < 0.1 | < 0.1 | 0.1 to 0.3 |
| COCCOc1nc2c(Oc3ccc(NC(=O)c4cn(C)c(C)c(-c5ccc(F)cc5C)c4=O)cc3F)ccnc2cc1OC [Compound 200, N-[3-Fluoro-4-[[7-methoxy-6-(2-methoxyethoxy)-1,5-naphthyridin-4-yl]oxy]phenyl]-5-(4-fluoro-2-methylphenyl)-1,6-dimethyl-4-oxopyridine-3-carboxamide] | < 0.1 | < 0.1 | < 0.1 |
| COc1cc2nccc(Oc3ccc(NC(=O)c4ccc(C)n(-c5ccc(F)cc5C)c4=O)cc3)c2nc1OC [Compound 225, N-[4-[(6,7-Dimethoxy-1,5-naphthyridin-4-yl)oxy]phenyl]-1-(4-fluoro-2-methylphenyl)-6-methyl-2-oxopyridine-3-carboxamide] | < 0.1 | < 0.1 | < 0.1 |

Continued, values first:

| IC50 [1] [µM] | IC50 [2] [µM] | IC50 [3] [µM] | SMILES |
| --- | --- | --- | --- |
| < 0.1 | < 0.1 | < 0.1 | COc1cnc2c(Oc3ccc(NC(=O)c4cnc(CO)c(-c5ccc(F)cc5)c4O)cc3F)ccnc2c1 [Compound 217, N-[3-Fluoro-4-[(7-methoxy-1,5-naphthyridin-4-yl)oxy]phenyl]-5-(4-fluorophenyl)-4-hydroxy-6-(hydroxymethyl)pyridine-3-carboxamide] |
| < 0.1 | < 0.1 | < 0.1 | COc1cnc2c(Oc3ccc(NC(=O)c4n[nH]c(C)c(-c5ccc(F)cc5)c4=O)cc3)ccnc2c1 [Compound 245, 5-(4-Fluorophenyl)-N-[4-[(7-methoxy-1,5-naphthyridin-4-yl)oxy]phenyl]-6-methyl-4-oxo-1H-pyridazine-3-carboxamide] |
| < 0.1 | < 0.1 | < 0.1 | CCc1nc(C)c(-c2ccc(F)cc2)c(O)c1C(=O)Nc1ccc(Oc2ccnc3cc(OC)c(OC)nc23)c(F)c1 [Compound 179, N-[4-[(6,7-Dimethoxy-1,5-naphthyridin-4-yl)oxy]-3-fluorophenyl]-2-ethyl-5-(4-fluorophenyl)-4-hydroxy-6-methylpyridine-3-carboxamide] |
| < 0.1 | < 0.1 | < 0.1 | COc1cnc2c(Oc3ccc(NC(=O)c4c(C)nc(C)n(-c5ccc(F)cc5)c4=O)cc3F)ccnc2c1 [Compound 257, N-[3-Fluoro-4-[(7-methoxy-1,5-naphthyridin-4-yl)oxy]phenyl]-1-(4-fluorophenyl)-2,4-dimethyl-6-oxopyrimidine-5-carboxamide] |
| < 0.1 | < 0.1 | < 0.1 | CCc1nc(C)c(-c2ccc(F)cc2)c(O)c1C(=O)Nc1ccc(Oc2ccnc3cc(OC)cnc23)cc1 [Compound 188, 2-Ethyl-5-(4-fluorophenyl)-4-hydroxy-N-[4-[(7-methoxy-1,5-naphthyridin-4-yl)oxy]phenyl]-6-methylpyridine-3-carboxamide] |
| < 0.1 | < 0.1 | 0.1 to 0.3 | CCc1nc(C)c(-c2ccc(F)cc2C)c(O)c1C(=O)Nc1ccc(Oc2ccnc3cc(OC)c(OC)nc23)c(F)c1 [Compound 202, N-[4-[(6,7-Dimethoxy-1,5-naphthyridin-4-yl)oxy]-3-fluorophenyl]-2-ethyl-5-(4-fluoro-2-methylphenyl)-4-hydroxy-6-methylpyridine-3-carboxamide] |
| < 0.1 | > 0.3 | < 0.1 | COc1cnc2c(Oc3ccc(NC(=O)c4c(C)n(C)cc(-c5ccc(F)cc5)c4=O)cc3F)ccnc2c1 [Compound 239, N-[3-Fluoro-4-[(7-methoxy-1,5-naphthyridin-4-yl)oxy]phenyl]-5-(4-fluorophenyl)-1,2-dimethyl-4-oxopyridine-3-carboxamide] |
